The record followed here is ChEMBL document CHEMBL1201862, “PubChem BioAssay data set” (2004).

Test systems include 786-0; A549; CAKI-1; CCRF-CEM; DU-145; HCC 2998; IGROV-1; LOX IMVI; MCF7; MDA-MB-231; MDA-MB-435; OVCAR-5; SF-268; SW-620; T47D; U-251; UACC-257; UACC-62; UO-31; NCI/ADR-RES.
What all share (assay): NCI anticancer screen, dose series, 48 h

Molecules are shown by their SMILES.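 Test compounds were applied to cells in 96-well plates for 48 hours at 5 doses. The concentration for 50% growth inhibition is given as GI50.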 Calls of active or inactive are those of the source. No stated cut-off is given here; in the data, active = GI50 up to about 1.1 µM and inactive = higher.

Turning to `Cc1cc(O)nc(NN2C(Cl)C(=O)C2c2ccc(O)cc2)n1` (stereo unspecified), the GI50 is 5.14 µM (inactive) with 786-0; 13.6 µM (inactive) with A549; 7.13 µM (inactive) with CAKI-1; 2.81 µM (inactive) in the test on CCRF-CEM; 10.9 µM (inactive) in the test on DU-145; 11.2 µM (inactive) with HCC 2998. For the same compound, the GI50 is 7.71 µM (inactive) with IGROV-1; 2.69 µM (inactive) with LOX IMVI; 4.03 µM (inactive) in the test on MCF7; 14 µM (inactive) with MDA-MB-231; 8.47 µM (inactive) with MDA-MB-435; 17.8 µM (inactive) in the test with OVCAR-5. Further, the GI50 in the test on SF-268 was 8.45 µM (inactive); in the test on SW-620 it was 5.21 µM (inactive); in the test with T47D, 12.7 µM (inactive); with U-251, 5.4 µM (inactive); with UACC-257 it was 13.1 µM (inactive); with UACC-62, 5.04 µM (inactive). In addition, in the test on UO-31, the GI50 was 10.5 µM (inactive).
For `CCCCCCOc1ccc(NC2=C(Cl)C(=O)c3cccnc3C2=O)cc1`, the GI50 is 1.48 µM (inactive) in the test with 786-0; 1.95 µM (inactive) in the test on A549; 1.65 µM (inactive) in the test on CCRF-CEM; 1.55 µM (inactive) in the test with DU-145; 1.56 µM (inactive) in the test on HCC 2998; 1.88 µM (inactive) in the test with IGROV-1. The GI50 in the test on LOX IMVI is 1.36 µM (inactive); in the test with MCF7, 1.21 µM (inactive); in the test on MDA-MB-435, 1.75 µM (inactive); in the test with OVCAR-5, 2.4 µM (inactive); in the test on SF-268 it was 2.11 µM (inactive); in the test on SW-620, 1.54 µM (inactive). Besides, the GI50 in the test on T47D was 1.62 µM (inactive); in the test on U-251 it was 2.29 µM (inactive); with UACC-257, 2.25 µM (inactive); in the test on UACC-62, 1.07 µM (active); with UO-31 it was 1.14 µM (inactive).
`c1ccc(/C(=N/Nc2cnccn2)c2ncccn2)cc1`: the GI50 in the test on 786-0 is 81.3 µM (inactive); in the test with A549, > 100 µM (inactive); with CAKI-1 it was 50.9 µM (inactive); with CCRF-CEM, 28 µM (inactive); in the test with DU-145, 90.2 µM (inactive); with HCC 2998, > 100 µM (inactive). The GI50 in the test on IGROV-1 was 23.7 µM (inactive); in the test with MCF7 it was > 100 µM (inactive); with MDA-MB-231, 68.2 µM (inactive); in the test with MDA-MB-435 it was > 100 µM (inactive); in the test on NCI/ADR-RES, 83.2 µM (inactive); in the test with OVCAR-5 it was > 100 µM (inactive). For the same compound, the GI50 is 22.5 µM (inactive) in the test on SF-268; 41.1 µM (inactive) in the test with SW-620; > 100 µM (inactive) with U-251; > 100 µM (inactive) in the test on UACC-257; 88.3 µM (inactive) in the test on UACC-62; 29 µM (inactive) in the test on UO-31.
For the compound `N#CC(Cl)CS(=O)(=O)c1ccccc1` (stereo unspecified), the GI50 is 16.8 µM (inactive) with 786-0; 20.1 µM (inactive) in the test on A549; 3.06 µM (inactive) with CAKI-1; 0.628 µM (active) in the test with CCRF-CEM; 17.5 µM (inactive) with DU-145; 15.8 µM (inactive) in the test with HCC 2998. Further, the GI50 in the test with IGROV-1 is 16.9 µM (inactive); in the test on LOX IMVI it was 7.14 µM (inactive); with MCF7 it was 10.2 µM (inactive); in the test on MDA-MB-231 it was 19.7 µM (inactive); with MDA-MB-435, 17.1 µM (inactive); with OVCAR-5, 20.3 µM (inactive). For the same compound, the GI50 with SF-268 is 11 µM (inactive); in the test with SW-620, 1.68 µM (inactive); in the test with T47D, 2.85 µM (inactive); with U-251, 19.3 µM (inactive); with UACC-257, 7.14 µM (inactive); in the test with UACC-62, 12.2 µM (inactive). For the same compound, in the test with UO-31, the GI50 was 19.1 µM (inactive).
As to `CC(=O)c1ccc(N2CCN(C3=CC(=O)c4c(O)ccc(O)c4C3=O)CC2)cc1`, the GI50 in the test on 786-0 is > 100 µM (inactive); in the test on A549, 19 µM (inactive); in the test on CAKI-1, > 100 µM (inactive); in the test on CCRF-CEM, 15.2 µM (inactive); in the test on DU-145 it was > 100 µM (inactive); with HCC 2998, > 100 µM (inactive). The GI50 is 45.9 µM (inactive) with IGROV-1; 35.9 µM (inactive) in the test with MCF7; 13.4 µM (inactive) in the test with MDA-MB-231; 3.44 µM (inactive) with NCI/ADR-RES; > 100 µM (inactive) with OVCAR-5; 33 µM (inactive) with SF-268. Also, the GI50 is 35.6 µM (inactive) with SW-620; > 100 µM (inactive) in the test on T47D; 16.2 µM (inactive) with U-251; > 100 µM (inactive) in the test on UACC-257; 31.4 µM (inactive) in the test with UACC-62; 4.42 µM (inactive) in the test with UO-31.
As to `CC1=NN(c2ccccc2)C(=O)C1C(=O)C(=O)Nc1ccc(C)cc1C` (stereo unspecified), the GI50 in the test on 786-0, in the test on A549, with CAKI-1, in the test with CCRF-CEM, in the test with DU-145 and in the test with HCC 2998 was > 100 µM (inactive) each time. In addition, the GI50 in the test on IGROV-1, in the test with LOX IMVI, in the test on MCF7, with NCI/ADR-RES, in the test on OVCAR-5 and in the test with SF-268 was > 100 µM (inactive) in each case. Also, the GI50 in the test with SW-620, with T47D, in the test with U-251, in the test with UACC-257, with UACC-62 and with UO-31 was > 100 µM (inactive) throughout.
As for `COc1c(C)c(C/C=C(\C)CCCC(C)CCCC(C)CCCC(C)C)c(OC)c2ccccc12` (stereo unspecified), the GI50 with 786-0, in the test on A549, with CAKI-1, in the test with CCRF-CEM, in the test on DU-145 and in the test on HCC 2998 was > 100 µM (inactive) each time. Besides, the GI50 in the test on IGROV-1, in the test with LOX IMVI, in the test on MCF7, in the test on MDA-MB-231, in the test on MDA-MB-435 and in the test with NCI/ADR-RES was > 100 µM (inactive) in each case. The GI50 in the test on OVCAR-5, in the test with SF-268, in the test on SW-620, with U-251, in the test with UACC-257 and in the test on UACC-62 was > 100 µM (inactive) in each case. Further, the GI50 in the test on UO-31 is > 100 µM (inactive).
For `NNc1nnc(CCCCCCCCc2nnc(NN)n2N)n1N`, the GI50 is 33.1 µM (inactive) in the test on 786-0; > 100 µM (inactive) in the test with A549; > 100 µM (inactive) in the test on CAKI-1; > 100 µM (inactive) in the test on CCRF-CEM; > 100 µM (inactive) with DU-145; 33.3 µM (inactive) with HCC 2998. Further, the GI50 is 55.3 µM (inactive) with IGROV-1; 21.4 µM (inactive) with LOX IMVI; > 100 µM (inactive) in the test with MCF7; 41.5 µM (inactive) with MDA-MB-231; > 100 µM (inactive) in the test on MDA-MB-435; 80.4 µM (inactive) with NCI/ADR-RES. The GI50 in the test on OVCAR-5 was > 100 µM (inactive); in the test on SF-268, 43.3 µM (inactive); in the test with SW-620 it was > 100 µM (inactive); with U-251 it was 16.9 µM (inactive); in the test with UACC-257, > 100 µM (inactive); with UO-31, > 100 µM (inactive).
